Experimental data reported in paper PMC6348443 (Journal of Medicinal Chemistry, 2018).
Entries after “also recorded” stand apart in the source; their conditions may differ. Where a name gives a salt, the structure may show the parent alone. Read-outs that look alike come from different tables or passages of the source.

How the values were obtained:
MOR [1] = biological target: T1, MOR (Rattus norvegicus, UniProt P33535); test: competition radioligand binding, rat brain membranes, [3H]DAMGO; conditions: for Ki: rat brain membranes, read-out: opioid receptor binding Ki MOR
T1 construct: Membranes were prepared from Sprague-Dawley rat brains or guinea-pig brains according to the described procedures; tissue Labortierkunde und Laborgenetik, Medizinische Universität Wien; host or cells: Sprague-Dawley rat brain without cerebella

DOR [2] = biological target: T2, DOR (Rattus norvegicus, UniProt P33533); test: competition radioligand binding, rat brain membranes, [3H][Ile5,6]deltorphin II; conditions: for Ki: rat brain membranes, read-out: opioid receptor binding Ki DOR
T2 construct: Membranes were prepared from Sprague-Dawley rat brains or guinea-pig brains according to the described procedures; tissue Labortierkunde und Laborgenetik, Medizinische Universität Wien; host or cells: Sprague-Dawley rat brain without cerebella

KOR [3] = biological target: T3, KOR (Cavia porcellus, UniProt P41144); test: competition radioligand binding, guinea-pig brain membranes, [3H]U69,593; conditions: guinea-pig brain membranes; read-out: opioid receptor binding Ki KOR
T3 construct: Membranes were prepared from Sprague-Dawley rat brains or guinea-pig brains according to the described procedures; tissue Labortierkunde und Laborgenetik, Medizinische Universität Wien; host or cells: guinea-pig brain without cerebella

MOR [4] = biological target: T4, MOR (Homo sapiens, UniProt P35372); test: [35S]GTPγS binding assay, CHO-hMOR membranes; assay type: biochemical; conditions: for Emax: relative to reference full agonist DAMGO, read-out: MOR % stim.
T4 construct: host or cells: CHO (CHO-hMOR)

DOR [5] = biological target: T5, DOR (Homo sapiens, UniProt P41143); test: [35S]GTPγS binding assay, CHO-hDOR membranes; assay type: biochemical; conditions: for EC50: [35S]GTPγS, CHO human DOR membranes; for Emax: relative to reference full agonist DPDPE, read-out: DOR % stim.
T5 construct: host or cells: CHO (CHO-hDOR)

KOR [6] = biological target: T6, KOR (Homo sapiens, UniProt P41145); test: [35S]GTPγS binding assay, CHO-hKOR membranes; assay type: biochemical; conditions: for Emax: relative to reference full agonist U69,593, read-out: KOR % stim.; for functional profile at KOR (full/partial agonist): partial agonist <85% of the response to U69,593
T6 construct: host or cells: CHO (CHO-hKOR)

male CD1 mice [7] = test: acetic acid-induced writhing assay after sc administration; assay type: in vivo, mouse; conditions: for ED50: Mus musculus, 0.5 h, read-out: ED50 (95% CI), mice, sc, inhibition of writhing 30 min after drug administration
[8] = tested on: peripheral opioid receptors; test: antagonism by naloxone methiodide in the acetic acid-induced writhing assay; assay type: in vivo, mouse; conditions: sc co-administration with naloxone methiodide 1 mg/kg; agonist 50 or 200 μg/kg sc; 30 min
Excerpt: To determine whether targeted 6-amino acid and 6-dipeptide analogues inhibit writhing behavior in mice through peripheral opioid receptors activation, we used naloxone methiodide.[27]
Values are shown as mean of writhes ± SEM (n = 6–7 mice per group). ***P < 0.001 vs control group; ^#P < 0.05, ^##P < 0.01 and ^###P < 0.001 vs agonist treated group, ANOVA with Tukey’s post hoc test.
Writhing was induced in male CD1 mice by ip injection of a 0.6% acetic acid aqueous solution as described previously.[48],[62] Groups of mice were administered sc different doses of test compound or saline (control), and 5 min prior to testing (25 min after drug or saline), each animal received an ip injection of acetic acid solution. Each mouse was placed in individual transparent Plexiglas chambers, and the number of writhes was counted during a 10 min observation period. […] For the antagonism study, naloxone methiodide was sc co-administered with the respective opioid agonist, and writhing was assessed as described above.

MOR [9] = biological target: T4, MOR; test: competition radioligand binding, CHO cell membranes expressing human MOR, [3H]DAMGO
Procedure: (§1) Membranes from CHO cells expressing human opioid receptors were prepared in 50 mM Tris-HCl buffer (pH 7.7) according to a previously described procedure.[64] Cells expressing human opioid receptors grown at confluence were removed from the culture plates by scraping, homogenized in 50 mM Tris buffer (pH 7.7), using a Polytron homogenizer, then centrifuged once and washed by an additional centrifugation at 27 000g for 15 min, at 4 °C. The final pellet was resuspended in Tris buffer and stored at −80 °C until use. Protein content of brain and cell membrane preparation homogenates was determined by the method of Bradford using bovine serum albumin as the standard.[65]
(§2) Rat brain membranes were incubated with either [^3H]DAMGO (1 nM, 45 min, 35 °C) or [^3H][Ile^5,6]deltorphin II (0.5 nM, 45 min, 35 °C) for labeling MOR or DOR receptors, respectively. Guinea-pig brain membranes were incubated with [^3H]U69,593 (1 nM, 30 min, 30 °C) for labeling KOR. Binding assays with CHO cell membranes were conducted at 25 °C for 60 min using [^3H]DAMGO (1 nM) or [^3H]diprenorphine (0.2 nM) for labeling MOR or DOR, respectively. Nonspecific binding was determined using 10 μM naloxone (rodent brain) or 1–10 μM of the unlabeled counterpart of each radioligand (CHO cells). Reactions were terminated by rapid filtration through Whatman glass fiber GF/C filters. Filters were washed three times with 5 mL of ice-cold 50 mM Tris-HCl buffer (pH 7.4) using a Brandel M24R cell harvester (Gaithersburg, MD). Radioactivity retained on the filters was counted by liquid scintillation counting using a Beckman Coulter LS6500 (Beckman Coulter Inc., Fullerton, CA). All binding experiments were performed in duplicate and repeated at least three times.
(§3) aDetermined in competition radioligand binding assays using CHO cell membranes expressing
(§4) human MOR and DOR. Values represent the mean ± SEM of three independent experiments each

DOR [10] = biological target: T5, DOR; test: competition radioligand binding, CHO cell membranes expressing human DOR, [3H]diprenorphine
Procedure: as §1, §2, §3, §4

male CD1 mice [11] = conditions: sc; cited from earlier work
MOR [12] = conditions: systemic sc 2b, icv CTAP; cited from earlier work
mouse = tested on: mouse; set-up: method as in PMID 25721395; conditions: systemic ip administration; cited from earlier work
rats = tested on: rats; set-up: method as in PMID 16339394; conditions: given orally; cited from earlier work
[13] = [35S]GTPγS, CHO human MOR membranes, read-out: MOR EC50
[14] = [35S]GTPγS, CHO human KOR membranes, read-out: KOR EC50

SMILES | Ki (MOR [1]) [nM] | Ki (DOR [2]) [nM] | Ki (KOR [3]) [nM] | EC50 (MOR [4]; [13]) [nM] | Emax (MOR [4]) [%] | EC50 (DOR [5]) [nM] | Emax (DOR [5]) [%] | EC50 (KOR [6]; [14]) [nM] | Emax (KOR [6]) [%] | ED50 (male CD1 mice [7]) [mg/kg] | effect of naloxone methiodide on antinociceptive effect [8] | EC50 (MOR [4]) [nM] | functional profile at KOR (full/partial agonist) (KOR [6]) | Ki (MOR [9]) [nM] | Ki (DOR [10]) [nM] | also measured
CO[C@@]12CC[C@H](N[C@H](C(=O)O)C3CCCCC3)[C@@H]3Oc4c(O)ccc5c4[C@@]31CCN(C)[C@@H]2C5 [Compound 18a, (2S)-2-[(4,5α-Epoxy-3-hydroxy-14β-methoxy-17-methyl-morphinan-6α-yl)-amino]-2-cyclohexylacetic Acid Dihydrochloride] | 1.23 ± 0.2 | 14.3 ± 0.09 | 177 ± 30 | 2.88 ± 1.21 | 86 ± 8 | 20.5 ± 8 | 101 ± 1 | 250 ± 80 | 52 ± 6 | 0.0206 | reversed | – | – | – | – | Ki ratio MOR/DOR/KOR (MOR [1]; from Ki in rat (MOR, DOR) and guinea-pig (KOR) brain membranes): 1/12/144; decreased DOR affinity vs 6β analogue (DOR [2]; rat brain, 18a vs 18b, 19a vs 19b): 11 times
CO[C@@]12CC[C@H](N[C@H](Cc3ccccc3)C(=O)O)[C@@H]3Oc4c(O)ccc5c4[C@@]31CCN(C)[C@@H]2C5 [Compound 17a, (2R)-2-[(4,5α-Epoxy-3-hydroxy-14β-methoxy-17-methyl-morphinan-6α-yl)-amino]-3-phenylpropionic Acid Dihydrochloride] | 0.61 ± 0.01 | 3.69 ± 0.59 | 76.4 ± 9.3 | 0.77 ± 0.24 | 96 ± 4 | 8.36 ± 0.28 | 95 ± 10 | 215 ± 32 | 80 ± 11 | < 0.02 | – | < 1 | full agonists | 0.85 ± 0.01 | 5.26 ± 0.42 | ED50 (95% CI) (male CD1 mice [7]; mice, inhibition of writhing 30 min after drug administration): 18.1 (8.37–39.2) μg/kg
CO[C@@]12CC[C@@H](N[C@@H](Cc3c[nH]c4ccccc34)C(=O)O)[C@@H]3Oc4c(O)ccc5c4[C@@]31CCN(C)[C@@H]2C5 [Compound 10b, (2S)-2-[(4,5α-Epoxy-3-hydroxy-14β-methoxy-17-methylmorphinan-6β-yl)-amino]-3-(1H-indolo-3yl)propionic Acid Dihydrochloride] | – | – | – | 1.64 ± 0.43 | 101 ± 11 | 2.18 ± 0.72 | 96 ± 5 | 181 ± 49 | 87 ± 8 | 0.0927 | reversed; also recorded: antagonized | – | full agonists | – | – | –
CO[C@@]12CC[C@@H](NCC(=O)O)[C@@H]3Oc4c(O)ccc5c4[C@@]31CCN(C)[C@@H]2C5 [Compound 2b, 2-[(4,5α-Epoxy-3-Hydroxy-14β-Methoxy-17-Methylmorphinan-6β-yl)Amino]Acetic Acid] | – | – | – | – | 98 ± 9 | – | – | – | 82 ± 9 | 0.0275 | reversed; also recorded: antagonized | 3.78 ± 0.73 | – | 0.9 ± 0.14 | 10.1 ± 2.7 | EC50 (KOR [6]): 361 ± 154 nM; more potent than morphine in inhibiting the writhing response (male CD1 mice [11]): 24 times; effect of intracerebroventricular CTAP on antinociceptive effects (MOR [12]): did not reverse; effect of naloxone methiodide on antinociceptive effects (mouse): completely antagonized; effect of sc naloxone methiodide on antihyperalgesic effects (rats): reversed
CC[C@H](N[C@@H]1CC[C@@]2(OC)[C@H]3Cc4ccc(O)c5c4[C@@]2(CCN3C)[C@H]1O5)C(=O)O [Compound 19b, (2S)-2-[(4,5α-Epoxy-3-hydroxy-14β-methoxy-17-methylmorphinan-6β-yl)amino]-2-ethylacetic Acid Dihydrochloride] | 1.83 ± 0.04 | 1.3 ± 0.24 | 201 ± 10 | 5.47 ± 1.18 | ~80 | 2.22 ± 1.64 | 100 ± 3 | 572 ± 18 | 72 ± 0.5 | – | antagonized | – | – | 2.1 ± 0.33 | 1.99 ± 0.84 | increased agonist potency at DOR vs MOR (DOR [5]; [35S]GTPγS EC50): 2–4 times
